This is an account of results in ChEMBL document CHEMBL3132769, “Fragment growing to retain or alter the selectivity of anchored kinase hinge-binding fragments” (Medchemcomm, 2014).

In assay [1] the target is Calcium/calmodulin-dependent protein kinase type II subunit delta (Homo sapiens) (UniProt Q13557). Description: Inhibition of human full length CAMK2D expressed in baculovirus assessed as substrate phosphorylation using fluorescence-labelled peptides as substrate at 2 uM after 90 mins by microfluidic peptide phosphorylation assay.
The target in assay [2] is T1, cGMP-dependent protein kinase 1 (Homo sapiens) (UniProt Q13976).
T1 sequence (whole entry): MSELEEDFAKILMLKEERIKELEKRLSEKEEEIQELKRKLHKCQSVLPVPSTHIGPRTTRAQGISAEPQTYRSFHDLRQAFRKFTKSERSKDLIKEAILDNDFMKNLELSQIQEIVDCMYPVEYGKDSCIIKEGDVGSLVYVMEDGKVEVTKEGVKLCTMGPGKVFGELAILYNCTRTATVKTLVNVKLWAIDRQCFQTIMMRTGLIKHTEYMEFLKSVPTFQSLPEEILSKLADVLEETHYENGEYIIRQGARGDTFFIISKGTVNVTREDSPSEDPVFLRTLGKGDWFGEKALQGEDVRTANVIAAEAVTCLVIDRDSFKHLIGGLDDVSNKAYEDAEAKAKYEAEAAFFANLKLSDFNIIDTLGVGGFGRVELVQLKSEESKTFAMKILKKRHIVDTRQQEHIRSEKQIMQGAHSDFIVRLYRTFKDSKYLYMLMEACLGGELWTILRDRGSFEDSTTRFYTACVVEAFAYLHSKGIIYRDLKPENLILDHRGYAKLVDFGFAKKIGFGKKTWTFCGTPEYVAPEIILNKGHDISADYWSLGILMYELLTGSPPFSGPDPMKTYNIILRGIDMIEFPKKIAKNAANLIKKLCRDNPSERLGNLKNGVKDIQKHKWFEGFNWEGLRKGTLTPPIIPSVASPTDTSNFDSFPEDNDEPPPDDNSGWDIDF
The settings on record: 0.1 uM.
Description: Inhibition of human full length PKG-1beta expressed in baculovirus assessed as substrate phosphorylation using fluorescence-labelled peptides as substrate at 0.1 uM after 90 mins by microfluidic peptide phosphorylation assay

Assay [3] concerns the target Tyrosine-protein kinase Lyn (Homo sapiens) (UniProt P07948). The settings on record: 0.1 uM.
Description: Inhibition of human full length LYN expressed in baculovirus assessed as substrate phosphorylation using fluorescence-labelled peptides as substrate at 0.1 uM after 90 mins by microfluidic peptide phosphorylation assay
Assay [4] concerns the target Fibroblast growth factor receptor 1 (Homo sapiens) (UniProt P11362). The experiment in a line: Inhibition of human FGFR1 catalytic domain expressed in baculovirus assessed as substrate phosphorylation using fluorescence-labelled peptides as substrate at 0.06 uM after 90 mins by microfluidic peptide phosphorylation assay.
In assay [5] the target is T2, Serine/threonine-protein kinase Chk1 (Homo sapiens) (UniProt O14757).
T2 sequence (whole entry): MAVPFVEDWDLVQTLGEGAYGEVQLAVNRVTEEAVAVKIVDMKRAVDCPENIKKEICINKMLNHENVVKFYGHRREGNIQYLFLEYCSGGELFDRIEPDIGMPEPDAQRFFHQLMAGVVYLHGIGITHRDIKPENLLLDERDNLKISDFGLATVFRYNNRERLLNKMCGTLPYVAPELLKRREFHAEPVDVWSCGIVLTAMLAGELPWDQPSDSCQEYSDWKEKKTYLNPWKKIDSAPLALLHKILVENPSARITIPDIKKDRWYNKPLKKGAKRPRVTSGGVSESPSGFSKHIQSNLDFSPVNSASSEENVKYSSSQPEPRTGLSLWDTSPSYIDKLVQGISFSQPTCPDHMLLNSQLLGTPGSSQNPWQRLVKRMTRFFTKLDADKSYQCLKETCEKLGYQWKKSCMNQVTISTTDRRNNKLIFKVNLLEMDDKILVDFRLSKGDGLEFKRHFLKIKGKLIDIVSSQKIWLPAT
The experiment in a line: Inhibition of human full length CHK1 expressed in baculovirus assessed as substrate phosphorylation using fluorescence-labelled peptides as substrate at 0.06 uM after 90 mins by microfluidic peptide phosphorylation assay.

Assay [6] relates to Tyrosine-protein kinase ABL1 (Homo sapiens), P00519 [T315I]. Description: Inhibition of human truncated ABL T315I mutant expressed in baculovirus assessed as substrate phosphorylation using fluorescence-labelled peptides as substrate at 9 uM after 90 mins by microfluidic peptide phosphorylation assay.
The target in assay [7] is Vascular endothelial growth factor receptor 2 (Homo sapiens) (UniProt P35968). Description: Inhibition of human KDR cytoplasmic domain expressed in baculovirus assessed as substrate phosphorylation using fluorescence-labelled peptides as substrate at 8 uM after 90 mins by microfluidic peptide phosphorylation assay.
The target of assay [8] is Protein kinase C delta type (Homo sapiens) (UniProt Q05655). The experiment in a line: Inhibition of human truncated PKC delta expressed in baculovirus assessed as substrate phosphorylation using fluorescence-labelled peptides as substrate at 70 uM after 90 mins by microfluidic peptide phosphorylation assay.
The target of assay [9] is Cyclin-dependent kinase 2 (Homo sapiens) (UniProt P24941). The experiment in a line: Inhibition of human full length CDK2 expressed in baculovirus assessed as substrate phosphorylation using fluorescence-labelled peptides as substrate at 70 uM after 90 mins by microfluidic peptide phosphorylation assay.
Assay [10] concerns T3, Receptor-type tyrosine-protein kinase FLT3 (Homo sapiens), P36888 [D835Y].
T3 sequence (whole entry): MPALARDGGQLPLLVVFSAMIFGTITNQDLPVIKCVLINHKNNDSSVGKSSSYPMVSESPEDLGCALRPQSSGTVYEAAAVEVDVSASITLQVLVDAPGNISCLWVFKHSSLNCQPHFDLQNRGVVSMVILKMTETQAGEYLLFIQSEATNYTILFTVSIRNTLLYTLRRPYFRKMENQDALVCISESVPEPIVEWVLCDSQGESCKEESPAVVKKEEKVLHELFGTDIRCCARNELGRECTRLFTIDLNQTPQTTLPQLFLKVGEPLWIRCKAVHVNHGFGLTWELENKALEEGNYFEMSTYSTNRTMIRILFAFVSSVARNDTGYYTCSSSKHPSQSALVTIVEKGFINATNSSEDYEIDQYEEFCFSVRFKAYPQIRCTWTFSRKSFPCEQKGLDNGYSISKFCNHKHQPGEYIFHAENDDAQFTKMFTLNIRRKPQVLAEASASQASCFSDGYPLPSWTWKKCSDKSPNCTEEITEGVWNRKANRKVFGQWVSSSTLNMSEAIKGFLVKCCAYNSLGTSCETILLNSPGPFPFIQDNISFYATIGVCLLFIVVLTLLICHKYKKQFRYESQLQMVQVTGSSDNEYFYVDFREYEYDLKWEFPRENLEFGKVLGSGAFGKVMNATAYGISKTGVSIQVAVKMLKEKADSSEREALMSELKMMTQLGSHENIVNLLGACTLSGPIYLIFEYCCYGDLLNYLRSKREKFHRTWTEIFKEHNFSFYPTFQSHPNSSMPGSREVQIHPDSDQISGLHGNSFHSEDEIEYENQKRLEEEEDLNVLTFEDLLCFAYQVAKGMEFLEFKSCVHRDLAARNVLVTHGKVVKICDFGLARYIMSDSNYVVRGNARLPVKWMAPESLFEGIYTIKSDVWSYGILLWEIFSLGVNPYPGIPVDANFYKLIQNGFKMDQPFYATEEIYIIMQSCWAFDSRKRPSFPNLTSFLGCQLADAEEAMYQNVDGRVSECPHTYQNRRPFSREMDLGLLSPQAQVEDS
The experiment in a line: Inhibition of human FLT3 D835Y mutant catalytic domain expressed in baculovirus assessed as substrate phosphorylation using fluorescence-labelled peptides as substrate at 420 uM after 90 mins by microfluidic peptide phosphorylation assay.

One may read the inhibition as the share of the control response that was lost under treatment.

Calcium/calmodulin-dependent protein kinase type II subunit delta (Homo sapiens), sequence (Q13557 whole entry): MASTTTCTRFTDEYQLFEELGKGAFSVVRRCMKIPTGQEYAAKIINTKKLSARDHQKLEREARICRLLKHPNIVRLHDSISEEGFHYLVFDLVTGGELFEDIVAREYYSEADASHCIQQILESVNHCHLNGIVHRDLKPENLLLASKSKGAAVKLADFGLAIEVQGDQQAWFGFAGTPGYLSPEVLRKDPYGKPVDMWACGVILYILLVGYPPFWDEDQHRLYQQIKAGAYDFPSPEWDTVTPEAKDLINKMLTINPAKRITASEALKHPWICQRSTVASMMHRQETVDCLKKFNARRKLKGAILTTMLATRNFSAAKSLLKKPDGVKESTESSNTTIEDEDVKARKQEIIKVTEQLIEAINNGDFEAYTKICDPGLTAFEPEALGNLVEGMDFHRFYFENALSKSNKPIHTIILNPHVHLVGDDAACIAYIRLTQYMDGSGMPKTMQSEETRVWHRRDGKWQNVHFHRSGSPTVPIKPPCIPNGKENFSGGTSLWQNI
Fibroblast growth factor receptor 1 (Homo sapiens), sequence (P11362 22-822 limits assumed): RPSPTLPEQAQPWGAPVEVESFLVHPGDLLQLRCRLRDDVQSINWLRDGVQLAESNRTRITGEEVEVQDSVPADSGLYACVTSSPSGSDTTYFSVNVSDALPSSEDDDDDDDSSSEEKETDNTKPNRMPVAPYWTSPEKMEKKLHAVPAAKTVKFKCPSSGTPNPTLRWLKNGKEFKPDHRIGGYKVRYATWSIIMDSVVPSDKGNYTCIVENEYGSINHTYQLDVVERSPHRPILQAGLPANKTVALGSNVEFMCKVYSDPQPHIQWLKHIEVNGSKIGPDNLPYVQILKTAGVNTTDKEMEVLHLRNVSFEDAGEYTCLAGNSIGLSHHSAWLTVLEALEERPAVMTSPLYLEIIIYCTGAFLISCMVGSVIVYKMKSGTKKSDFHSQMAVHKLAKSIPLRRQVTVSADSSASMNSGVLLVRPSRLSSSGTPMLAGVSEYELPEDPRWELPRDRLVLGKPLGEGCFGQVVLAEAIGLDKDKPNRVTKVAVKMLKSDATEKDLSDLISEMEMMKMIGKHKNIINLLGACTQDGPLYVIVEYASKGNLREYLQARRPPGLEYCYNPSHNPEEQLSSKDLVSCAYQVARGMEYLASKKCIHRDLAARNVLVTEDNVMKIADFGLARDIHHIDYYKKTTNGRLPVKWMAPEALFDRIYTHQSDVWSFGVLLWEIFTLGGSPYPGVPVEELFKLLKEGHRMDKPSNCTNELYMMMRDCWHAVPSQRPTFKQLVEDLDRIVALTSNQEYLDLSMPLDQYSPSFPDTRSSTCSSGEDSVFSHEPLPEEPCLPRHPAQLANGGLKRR
Vascular endothelial growth factor receptor 2 (Homo sapiens), sequence (P35968 whole entry, the tested form may be a part): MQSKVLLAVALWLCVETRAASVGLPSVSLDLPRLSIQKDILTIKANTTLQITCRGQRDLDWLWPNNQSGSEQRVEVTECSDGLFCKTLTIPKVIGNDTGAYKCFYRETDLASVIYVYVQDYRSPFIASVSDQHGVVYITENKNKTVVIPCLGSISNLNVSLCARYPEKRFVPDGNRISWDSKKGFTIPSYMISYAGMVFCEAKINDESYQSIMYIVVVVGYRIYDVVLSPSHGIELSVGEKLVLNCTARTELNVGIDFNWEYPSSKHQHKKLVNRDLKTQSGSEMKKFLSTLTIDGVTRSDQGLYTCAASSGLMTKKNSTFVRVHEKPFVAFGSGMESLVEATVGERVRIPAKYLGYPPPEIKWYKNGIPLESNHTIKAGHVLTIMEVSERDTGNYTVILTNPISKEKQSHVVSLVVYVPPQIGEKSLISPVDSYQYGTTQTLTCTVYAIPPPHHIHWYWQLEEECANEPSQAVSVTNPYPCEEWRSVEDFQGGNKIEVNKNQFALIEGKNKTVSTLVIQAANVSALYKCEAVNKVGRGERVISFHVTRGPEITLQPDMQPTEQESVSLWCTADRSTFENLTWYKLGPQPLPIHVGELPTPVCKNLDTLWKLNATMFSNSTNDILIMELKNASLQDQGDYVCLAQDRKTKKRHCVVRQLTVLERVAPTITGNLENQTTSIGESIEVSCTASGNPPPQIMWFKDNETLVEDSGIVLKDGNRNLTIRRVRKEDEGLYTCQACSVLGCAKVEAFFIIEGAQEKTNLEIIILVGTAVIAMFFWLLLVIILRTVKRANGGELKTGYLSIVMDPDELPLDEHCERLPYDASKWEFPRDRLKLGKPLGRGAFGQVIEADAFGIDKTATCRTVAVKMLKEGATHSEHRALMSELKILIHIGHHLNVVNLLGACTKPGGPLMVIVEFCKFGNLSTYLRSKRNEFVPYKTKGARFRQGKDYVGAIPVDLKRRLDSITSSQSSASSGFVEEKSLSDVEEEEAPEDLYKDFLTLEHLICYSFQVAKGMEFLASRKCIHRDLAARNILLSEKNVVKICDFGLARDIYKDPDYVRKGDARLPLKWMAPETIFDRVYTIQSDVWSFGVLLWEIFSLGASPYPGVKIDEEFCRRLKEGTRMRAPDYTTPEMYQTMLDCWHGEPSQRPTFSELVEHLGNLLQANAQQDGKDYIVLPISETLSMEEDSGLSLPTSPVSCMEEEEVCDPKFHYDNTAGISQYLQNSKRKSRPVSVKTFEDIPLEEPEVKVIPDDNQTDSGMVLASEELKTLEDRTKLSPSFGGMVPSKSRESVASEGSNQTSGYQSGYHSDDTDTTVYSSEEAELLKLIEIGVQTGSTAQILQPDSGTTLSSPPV
Protein kinase C delta type (Homo sapiens), sequence (Q05655 whole entry, looked up, the tested form may be a part): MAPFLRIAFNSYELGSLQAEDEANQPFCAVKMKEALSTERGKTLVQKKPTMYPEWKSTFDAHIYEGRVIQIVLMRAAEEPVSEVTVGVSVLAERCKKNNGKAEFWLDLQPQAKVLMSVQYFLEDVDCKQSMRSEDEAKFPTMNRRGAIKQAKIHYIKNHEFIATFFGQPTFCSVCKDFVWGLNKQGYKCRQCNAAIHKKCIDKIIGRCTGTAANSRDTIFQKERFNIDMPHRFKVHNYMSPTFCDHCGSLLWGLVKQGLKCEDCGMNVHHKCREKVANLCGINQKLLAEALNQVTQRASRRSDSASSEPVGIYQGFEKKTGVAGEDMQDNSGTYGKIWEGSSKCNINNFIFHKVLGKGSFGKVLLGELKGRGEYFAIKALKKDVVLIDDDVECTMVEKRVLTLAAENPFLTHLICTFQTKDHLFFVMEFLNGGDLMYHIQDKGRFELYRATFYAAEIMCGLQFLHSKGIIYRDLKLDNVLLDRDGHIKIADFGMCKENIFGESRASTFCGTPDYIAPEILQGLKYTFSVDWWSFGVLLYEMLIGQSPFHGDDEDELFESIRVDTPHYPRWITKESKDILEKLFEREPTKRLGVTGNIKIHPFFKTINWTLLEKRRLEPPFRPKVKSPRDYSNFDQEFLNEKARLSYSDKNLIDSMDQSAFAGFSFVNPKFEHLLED
Tyrosine-protein kinase Lyn (Homo sapiens), sequence (P07948 2-512 limits assumed): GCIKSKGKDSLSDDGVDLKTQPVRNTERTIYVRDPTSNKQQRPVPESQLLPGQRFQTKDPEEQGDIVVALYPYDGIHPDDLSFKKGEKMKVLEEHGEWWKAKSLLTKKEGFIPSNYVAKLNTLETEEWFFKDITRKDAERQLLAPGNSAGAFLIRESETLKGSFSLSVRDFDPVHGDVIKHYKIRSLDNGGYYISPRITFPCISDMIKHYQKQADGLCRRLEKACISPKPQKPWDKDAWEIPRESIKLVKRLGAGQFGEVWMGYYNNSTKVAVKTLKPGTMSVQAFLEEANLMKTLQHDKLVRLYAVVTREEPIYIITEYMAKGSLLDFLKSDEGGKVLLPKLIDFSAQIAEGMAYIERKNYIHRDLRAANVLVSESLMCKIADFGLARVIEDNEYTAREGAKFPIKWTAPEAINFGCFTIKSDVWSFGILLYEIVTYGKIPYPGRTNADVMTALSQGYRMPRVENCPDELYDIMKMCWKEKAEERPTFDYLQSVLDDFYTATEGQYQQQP

Regarding `NC1CCN(c2ncnc3[nH]ccc23)CC1`, in [1], the inhibition came out at 8%.
Turning to `C[C@H](CN(C)C)Oc1nc(Nc2cc3cccc(Cl)c3cn2)cnc1C#N`, the inhibition in assay [2] and in [3] was 0% each time.
On to `NC1(Cc2ccc(Cl)cc2)CCN(c2ncnc3[nH]ccc23)CC1`, for which the inhibition in [4] and in assay [5] was 0% each time.
In the case of `NCC1CN(c2ncnc3[nH]c4cnccc4c23)CCO1` (stereo not given), the inhibition in assay [6] was found to be 10%.
With `NCC1CCN(c2ncnc3[nH]ccc23)CC1`, the inhibition in assay [7] worked out at 50%.
As to `CNCc1ccc(-c2ncnc3[nH]cnc23)cc1`, the inhibition in assay [8] worked out at 60%; in [9] it was 34%.
`c1nc(N2CCOCC2)c2nc[nH]c2n1`: the inhibition in [10] was 93%.
